Columns and labels:
[1] = Chemical reactivity of compound to NAL in PBS at pH 7.4 by UV spectrometric assay; assay type: physicochemical; conditions: buffer
CYP1A2 = molecular target: T1, CYP1A2 (Homo sapiens, UniProt P05177); test: Inhibition of human CYP1A2 assessed as remaining activity at 50 uM using phenacetin as substrate preincubated for 3 mins followed by substrate addition and measured upto 15 mins by LC-MS/MS analysis (reference value: 85.4 +/- 3.42 %); assay type: ADME; conditions: probe phenacetin, time < 18 min, read-out: Activity
T1 sequence (P05177 whole entry): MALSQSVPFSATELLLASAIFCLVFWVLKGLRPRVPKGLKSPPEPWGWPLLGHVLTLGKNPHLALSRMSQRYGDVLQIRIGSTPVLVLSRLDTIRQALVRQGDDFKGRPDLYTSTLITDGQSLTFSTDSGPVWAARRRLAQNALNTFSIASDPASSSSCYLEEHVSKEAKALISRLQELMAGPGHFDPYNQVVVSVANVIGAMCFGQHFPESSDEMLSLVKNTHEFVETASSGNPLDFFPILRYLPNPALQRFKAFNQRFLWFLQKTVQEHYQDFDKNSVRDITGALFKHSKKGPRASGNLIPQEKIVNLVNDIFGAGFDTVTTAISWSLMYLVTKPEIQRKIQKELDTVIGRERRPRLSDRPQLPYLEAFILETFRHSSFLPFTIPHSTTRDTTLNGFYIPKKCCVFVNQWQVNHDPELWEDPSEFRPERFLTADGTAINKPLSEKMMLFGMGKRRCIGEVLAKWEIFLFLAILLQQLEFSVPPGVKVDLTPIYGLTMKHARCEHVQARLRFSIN

Cytochrome P450 3A4 [2] = molecular target: Cytochrome P450 3A4 (Homo sapiens, UniProt P08684, C239S); test: Inhibition of CYP3A4 C239S mutant (unknown origin) expressed in CHO cells using midazolam as substrate incubated for 6 hrs by LC-MS/MS analysis; assay type: ADME, cell-based
Chain of Cytochrome P450 3A4 (Homo sapiens, UniProt P08684, C239S) (P08684 2-503 C239S limits assumed): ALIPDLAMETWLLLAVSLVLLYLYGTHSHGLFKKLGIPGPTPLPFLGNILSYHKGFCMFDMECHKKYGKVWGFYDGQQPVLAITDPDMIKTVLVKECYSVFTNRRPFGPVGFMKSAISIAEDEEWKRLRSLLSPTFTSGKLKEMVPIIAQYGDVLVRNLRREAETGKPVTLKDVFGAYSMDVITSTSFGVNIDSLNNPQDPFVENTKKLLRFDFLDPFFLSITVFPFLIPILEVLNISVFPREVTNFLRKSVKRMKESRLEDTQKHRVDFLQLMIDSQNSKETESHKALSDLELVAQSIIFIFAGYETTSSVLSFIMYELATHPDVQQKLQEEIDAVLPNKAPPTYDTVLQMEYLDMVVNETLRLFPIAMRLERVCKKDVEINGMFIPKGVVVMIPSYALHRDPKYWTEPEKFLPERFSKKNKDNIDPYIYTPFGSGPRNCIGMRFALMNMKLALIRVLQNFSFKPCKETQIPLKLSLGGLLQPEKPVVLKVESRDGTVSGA

CYP2D6 = CYP2D6 (Homo sapiens, UniProt P10635); test: Inhibition of human CYP2D6 assessed as remaining activity at 50 uM using dextromethorphan as substrate preincubated for 3 mins followed by substrate addition and measured upto 15 mins by LC-MS/MS analysis; assay type: ADME; conditions: probe dextromethorphan, time < 18 min, read-out: Activity
Chain of CYP2D6 (P10635 whole entry): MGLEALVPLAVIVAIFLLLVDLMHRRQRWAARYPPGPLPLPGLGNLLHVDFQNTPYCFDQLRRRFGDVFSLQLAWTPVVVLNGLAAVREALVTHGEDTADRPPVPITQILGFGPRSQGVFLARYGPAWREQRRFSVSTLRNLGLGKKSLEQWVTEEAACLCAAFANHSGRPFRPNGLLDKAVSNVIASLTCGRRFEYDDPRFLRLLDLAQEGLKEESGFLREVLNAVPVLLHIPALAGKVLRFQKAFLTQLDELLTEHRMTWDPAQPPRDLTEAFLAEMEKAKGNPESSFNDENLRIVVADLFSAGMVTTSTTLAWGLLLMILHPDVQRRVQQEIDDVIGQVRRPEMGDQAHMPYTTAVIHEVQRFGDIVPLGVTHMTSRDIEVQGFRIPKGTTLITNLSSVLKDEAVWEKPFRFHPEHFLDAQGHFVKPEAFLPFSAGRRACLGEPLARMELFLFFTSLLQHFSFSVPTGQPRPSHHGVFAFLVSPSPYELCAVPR

CYP2C9 = CYP2C9 (Homo sapiens, UniProt P11712); test: Inhibition of human CYP2C9 assessed as remaining activity at 50 uM using diclofenac sodium as substrate preincubated for 3 mins followed by substrate addition and measured upto 15 mins by LC-MS/MS analysis; assay type: ADME; conditions: probe diclofenac sodium, time < 18 min, read-out: Activity
Chain of CYP2C9 (P11712 whole entry): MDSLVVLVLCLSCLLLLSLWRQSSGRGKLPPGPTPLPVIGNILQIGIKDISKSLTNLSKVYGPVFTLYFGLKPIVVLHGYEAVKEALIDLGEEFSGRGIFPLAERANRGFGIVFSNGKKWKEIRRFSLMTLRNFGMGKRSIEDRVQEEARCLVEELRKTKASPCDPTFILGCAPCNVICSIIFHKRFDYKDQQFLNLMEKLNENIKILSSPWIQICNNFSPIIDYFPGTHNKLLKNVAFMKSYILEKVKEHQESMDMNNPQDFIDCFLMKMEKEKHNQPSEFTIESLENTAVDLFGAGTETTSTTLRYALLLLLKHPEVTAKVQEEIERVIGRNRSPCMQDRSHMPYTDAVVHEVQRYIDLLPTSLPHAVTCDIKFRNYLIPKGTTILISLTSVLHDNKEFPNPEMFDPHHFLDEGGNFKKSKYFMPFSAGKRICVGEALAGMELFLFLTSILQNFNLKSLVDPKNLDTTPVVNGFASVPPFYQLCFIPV

CYP2A6 = molecular target: T2, CYP2A6 (Homo sapiens, UniProt P11509); test: Inhibition of human CYP2A6 assessed as remaining activity at 50 uM using coumarin as substrate preincubated for 3 mins followed by substrate addition and measured upto 15 mins by LC-MS/MS analysis; assay type: ADME; conditions: probe coumarin, time < 18 min, read-out: Activity
T2 sequence (P11509 whole entry): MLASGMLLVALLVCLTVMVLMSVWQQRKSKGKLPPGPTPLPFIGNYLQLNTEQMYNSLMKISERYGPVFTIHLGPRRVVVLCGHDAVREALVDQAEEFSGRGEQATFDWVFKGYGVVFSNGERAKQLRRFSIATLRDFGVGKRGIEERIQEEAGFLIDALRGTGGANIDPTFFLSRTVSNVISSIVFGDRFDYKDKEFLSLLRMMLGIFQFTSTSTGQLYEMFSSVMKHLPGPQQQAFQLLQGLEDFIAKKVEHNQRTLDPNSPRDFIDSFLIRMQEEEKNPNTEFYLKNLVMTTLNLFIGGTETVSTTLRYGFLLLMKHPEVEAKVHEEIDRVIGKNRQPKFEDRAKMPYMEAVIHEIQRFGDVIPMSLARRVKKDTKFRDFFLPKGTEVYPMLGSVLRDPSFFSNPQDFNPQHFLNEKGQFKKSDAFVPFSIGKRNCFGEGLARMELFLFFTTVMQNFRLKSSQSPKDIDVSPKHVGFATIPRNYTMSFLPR

CYP3A5 = CYP3A5 (Homo sapiens, UniProt P20815); test: Inhibition of human CYP3A5 assessed as remaining activity at 50 uM using testosterone as substrate preincubated for 3 mins followed by substrate addition and measured upto 15 mins by LC-MS/MS analysis; assay type: ADME; conditions: probe testosterone, time < 18 min, read-out: Activity
Chain of CYP3A5 (P20815 whole entry): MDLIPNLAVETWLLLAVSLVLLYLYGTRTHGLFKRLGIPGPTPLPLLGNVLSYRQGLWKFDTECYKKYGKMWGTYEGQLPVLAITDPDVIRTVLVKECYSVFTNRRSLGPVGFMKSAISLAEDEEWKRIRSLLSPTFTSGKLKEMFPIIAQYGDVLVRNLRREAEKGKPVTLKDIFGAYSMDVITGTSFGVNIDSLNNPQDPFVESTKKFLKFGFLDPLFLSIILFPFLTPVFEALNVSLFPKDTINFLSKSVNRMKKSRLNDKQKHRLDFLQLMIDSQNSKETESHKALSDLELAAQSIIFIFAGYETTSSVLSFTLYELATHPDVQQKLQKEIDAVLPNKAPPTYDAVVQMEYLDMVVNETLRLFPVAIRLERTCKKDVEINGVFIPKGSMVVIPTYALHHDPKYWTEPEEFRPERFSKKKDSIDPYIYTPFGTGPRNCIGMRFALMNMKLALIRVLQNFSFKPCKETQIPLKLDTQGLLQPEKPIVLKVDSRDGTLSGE

Cytochrome P450 3A4 [3] = molecular target: T3, Cytochrome P450 3A4 (Homo sapiens, UniProt P08684); test: Inhibition of CYP3A4 (unknown origin) incubated for 5 to 15 mins by LC-MS/MS analysis; assay type: ADME; conditions: at 10 to 50 µM, dose lower 10 µM, time lower 5 min, dose upper 50 µM, time upper 15 min
T3 sequence (P08684 whole entry): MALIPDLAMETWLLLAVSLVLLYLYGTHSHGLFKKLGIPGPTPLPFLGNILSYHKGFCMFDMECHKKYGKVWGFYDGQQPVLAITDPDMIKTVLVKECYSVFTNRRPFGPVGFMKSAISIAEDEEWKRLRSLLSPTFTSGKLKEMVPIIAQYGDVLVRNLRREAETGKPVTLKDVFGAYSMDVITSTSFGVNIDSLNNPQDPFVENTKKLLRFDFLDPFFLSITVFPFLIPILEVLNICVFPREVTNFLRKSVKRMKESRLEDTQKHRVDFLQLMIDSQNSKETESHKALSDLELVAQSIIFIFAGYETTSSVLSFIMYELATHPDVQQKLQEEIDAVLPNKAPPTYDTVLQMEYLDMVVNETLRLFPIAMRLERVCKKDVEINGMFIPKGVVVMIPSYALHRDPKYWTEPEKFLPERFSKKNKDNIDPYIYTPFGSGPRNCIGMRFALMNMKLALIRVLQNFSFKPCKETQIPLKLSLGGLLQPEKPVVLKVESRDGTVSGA

CYP3A4 [4] = molecular target: T4, CYP3A4 (Homo sapiens, UniProt P08684); test: Inhibition of CYP3A4 (unknown origin) assessed as remaining activity at 50 uM incubated for 15 mins in presence of 20 mM NAC; assay type: ADME; conditions: read-out: Activity
T4 sequence (P08684 whole entry): as above

CYP2E1 = CYP2E1 (Homo sapiens, UniProt P05181); test: Inhibition of human CYP2E1 assessed as remaining activity at 50 uM using 4-nitrophenol as substrate preincubated for 3 mins followed by substrate addition and measured upto 15 mins by LC-MS/MS analysis; assay type: ADME; conditions: probe 4-nitrophenol, time < 18 min, read-out: Activity
Chain of CYP2E1 (P05181 whole entry): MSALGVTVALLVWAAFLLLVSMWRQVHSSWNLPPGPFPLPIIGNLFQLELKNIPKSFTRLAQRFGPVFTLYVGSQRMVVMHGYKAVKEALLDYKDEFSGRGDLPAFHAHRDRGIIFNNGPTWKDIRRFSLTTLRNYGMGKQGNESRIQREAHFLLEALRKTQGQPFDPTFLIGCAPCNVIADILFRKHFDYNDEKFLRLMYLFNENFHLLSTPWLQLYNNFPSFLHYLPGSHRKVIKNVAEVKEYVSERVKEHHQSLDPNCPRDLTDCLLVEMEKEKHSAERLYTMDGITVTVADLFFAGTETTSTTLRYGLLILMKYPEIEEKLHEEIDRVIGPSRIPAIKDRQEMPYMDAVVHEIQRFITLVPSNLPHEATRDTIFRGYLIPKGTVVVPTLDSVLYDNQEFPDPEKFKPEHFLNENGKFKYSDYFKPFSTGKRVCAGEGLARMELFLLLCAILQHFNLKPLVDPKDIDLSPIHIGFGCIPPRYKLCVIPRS

Cytochrome P450 3A4 [5] = molecular target: T3, Cytochrome P450 3A4; test: Inhibition of CYP3A4 (unknown origin) at 50 uM incubated for 5 to 15 mins in absence of NADPH by LC-MS/MS analysis; assay type: ADME; conditions: time 5-15 min
Cytochrome P450 3A4 [6] = molecular target: T3, Cytochrome P450 3A4; test: Inhibition of wild type CYP3A4 (unknown origin) expressed in CHO cells using midazolam as substrate incubated for 6 hrs by LC-MS/MS analysis; assay type: ADME, cell-based
Cytochrome P450 3A4 [7] = molecular target: T3, Cytochrome P450 3A4; test: Inhibition of CYP3A4 (unknown origin) at 10 to 50 uM by LC-MS/MS analysis; assay type: ADME; conditions: TDE = time-dependent effect, dose lower 10 µM, time lower 5 min, dose upper 50 µM, time upper 15 min
CYP3A4 [8] = molecular target: T4, CYP3A4; test: Inhibition of CYP3A4 (unknown origin) assessed as remaining activity at 50 uM incubated for 15 mins in presence of 2 mM NAC; assay type: ADME; conditions: read-out: Activity
CYP3A4 [9] = molecular target: T4, CYP3A4; test: Inhibition of CYP3A4 (unknown origin) assessed as remaining activity at 50 uM measured 15 mins after dialysis (reference value: 53.8 +/- 2.9 %); assay type: ADME; conditions: read-out: Activity
CYP3A4 [10] = molecular target: T4, CYP3A4; test: Inhibition of CYP3A4 (unknown origin) assessed as remaining activity at 50 uM incubated for 15 mins (reference value: 85 +/- 3.4%); assay type: ADME; conditions: read-out: Activity
CYP2B6 = molecular target: T5, CYP2B6 (Homo sapiens, UniProt P20813); test: Inhibition of human CYP2B6 assessed as remaining activity at 50 uM using bupropion.HCl as substrate preincubated for 3 mins followed by substrate addition and measured upto 15 mins by LC-MS/MS analysis; assay type: ADME; conditions: buffer, probe bupropion.HCl, time < 18 min, read-out: Activity
T5 sequence (P20813 whole entry): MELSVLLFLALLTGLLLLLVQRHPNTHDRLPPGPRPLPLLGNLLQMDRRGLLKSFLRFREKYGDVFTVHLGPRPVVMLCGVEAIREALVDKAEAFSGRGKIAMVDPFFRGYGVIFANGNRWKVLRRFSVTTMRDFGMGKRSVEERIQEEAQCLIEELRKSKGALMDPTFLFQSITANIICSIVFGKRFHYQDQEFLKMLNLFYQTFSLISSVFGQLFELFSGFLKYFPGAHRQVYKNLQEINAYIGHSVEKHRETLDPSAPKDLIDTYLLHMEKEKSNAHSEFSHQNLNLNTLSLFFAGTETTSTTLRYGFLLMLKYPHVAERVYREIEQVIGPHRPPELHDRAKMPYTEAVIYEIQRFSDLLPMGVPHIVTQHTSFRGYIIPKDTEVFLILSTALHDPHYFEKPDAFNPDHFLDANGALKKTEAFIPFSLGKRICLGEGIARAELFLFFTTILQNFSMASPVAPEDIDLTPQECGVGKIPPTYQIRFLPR

Cytochrome P450 3A4 [11] = molecular target: T3, Cytochrome P450 3A4; test: Inhibition of CYP3A4 (unknown origin) at 50 uM preincubated for 3 mins followed by NADPH addition and measured after 5 to 15 mins by LC-MS/MS analysis; assay type: ADME; conditions: time 8-18 min
CYP3A4 [12] = molecular target: T4, CYP3A4; test: Inhibition of human CYP3A4 assessed as remaining activity at 50 uM using testosterone as substrate preincubated for 3 mins followed by substrate addition and measured upto 15 mins by LC-MS/MS analysis (reference value: 85.4 +/- 3.42 %); assay type: ADME; conditions: probe testosterone, time < 18 min, read-out: Activity
CYP3A4 [13] = molecular target: T4, CYP3A4; test: Inhibition of CYP3A4 (unknown origin) assessed as remaining activity at 50 uM measured immediately (reference value: 100 %); assay type: ADME; conditions: read-out: Activity
CYP3A4 [14] = molecular target: T4, CYP3A4; test: Inhibition of CYP3A4 (unknown origin) at 50 uM incubated for 15 mins by LC-MS/MS analysis; assay type: ADME
CYP2C19 = CYP2C19 (Homo sapiens, UniProt P33261); test: Inhibition of human CYP2C19 assessed as remaining activity at 50 uM using omeprazole as substrate preincubated for 3 mins followed by substrate addition and measured upto 15 mins by LC-MS/MS analysis; assay type: ADME; conditions: probe omeprazole, time < 18 min, read-out: Activity
Chain of CYP2C19 (P33261 whole entry): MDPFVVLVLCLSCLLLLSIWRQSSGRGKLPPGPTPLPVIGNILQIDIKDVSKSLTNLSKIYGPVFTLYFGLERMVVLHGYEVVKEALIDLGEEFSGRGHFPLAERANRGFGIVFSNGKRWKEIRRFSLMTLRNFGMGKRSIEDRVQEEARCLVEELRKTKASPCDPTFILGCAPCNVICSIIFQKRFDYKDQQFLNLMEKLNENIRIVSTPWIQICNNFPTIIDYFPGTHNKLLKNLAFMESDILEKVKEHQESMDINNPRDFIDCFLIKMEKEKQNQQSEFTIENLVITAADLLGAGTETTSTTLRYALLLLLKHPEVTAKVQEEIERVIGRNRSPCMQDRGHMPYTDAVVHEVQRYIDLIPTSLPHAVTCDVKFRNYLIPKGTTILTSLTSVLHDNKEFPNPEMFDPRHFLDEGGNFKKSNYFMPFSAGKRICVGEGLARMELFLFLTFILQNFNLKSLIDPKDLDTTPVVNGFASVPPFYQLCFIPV

CYP3A4 [15] = molecular target: T4, CYP3A4; test: Inhibition of CYP3A4 (unknown origin) assessed as remaining activity at 50 uM measured 15 mins before dialysis (reference value: 87.2 +/- 2.3 %); assay type: ADME; conditions: read-out: Activity
CYP3A4 [16] = molecular target: T4, CYP3A4; test: Inhibition of CYP3A4 (unknown origin) assessed as residual activity at 50 uM incubated for 5 to 15 mins in presence of ketoconazole; assay type: ADME; conditions: with ketoconazole, time 5-15 min, read-out: Activity
[17] = Chemical reactivity of compound to serine in PBS at pH 7.4 by UV spectrometric assay; assay type: physicochemical; conditions: buffer
[18] = Chemical reactivity of compound to NAC in PBS at pH 7.4 by UV spectrometric assay; assay type: physicochemical; conditions: buffer
Cytochrome P450 3A4 [19] = molecular target: T3, Cytochrome P450 3A4; test: Time dependent inhibition of CYP3A4 (unknown origin) at 50 uM measured after 5 to 15 mins; assay type: ADME; conditions: time 5-15 min
Cytochrome P450 3A4 [20] = molecular target: T3, Cytochrome P450 3A4; test: Time dependent inhibition of CYP3A4 (unknown origin) at 50 uM measured after 5 to 15 mins in presence of NADPH; assay type: ADME; conditions: time 5-15 min

For COc1ccc2c(c[n+](C)c3c4cc5c(cc4ccc23)OCO5)c1OC.[Cl-] [CHELERYTHRINE CHLORIDE], the Drug metabolism [1] was “Metabolite_Notdetected”, the activity at 0.25 h, 50 µM (CYP1A2) was > 50% and the “inhibition (INH)” value (Cytochrome P450 3A4 [2]) was “Not Active”. The activity at 0.25 h, 50 µM (CYP2D6) was > 50%, the activity at 0.25 h, 50 µM (CYP2C9) was > 50% and the activity at 0.25 h, 50 µM (CYP2A6) was > 50%. For the same compound, the activity at 0.25 h, 50 µM (CYP3A5) was > 50%, the “inhibition (INH)” value (Cytochrome P450 3A4 [3]) was “Dose-Dependent Effect” and the activity at 0.25 h, 50 µM (CYP3A4 [4]) was 85.9%. For the same compound, the activity at 0.25 h, 50 µM (CYP2E1) was > 50%, the “inhibition (INH)” value (Cytochrome P450 3A4 [5]) was “Active” and the “inhibition (INH)” value (Cytochrome P450 3A4 [6]) was “Active”. For the same compound, the “inhibition (INH)” value (Cytochrome P450 3A4 [7]) was “Tde”, the activity at 0.25 h, 50 µM (CYP3A4 [8]) was 49.9% and the activity at 0.25 h, 50 µM (CYP3A4 [9]) was 25.1%. For the same compound, the activity at 0.25 h, 50 µM (CYP3A4 [10]) was 26%, the activity at 0.25 h, 50 µM (CYP2B6) was > 50% and the “inhibition (INH)” value (Cytochrome P450 3A4 [11]) was “Active”. For the same compound, the activity at 0.25 h, 50 µM (CYP3A4 [12]) was 26.3%, the activity at 0 min, 50 µM (CYP3A4 [13]) was 70.7% and the inhibition at 0.25 h, 50 µM (CYP3A4 [14]) was 75%. For the same compound, the activity at 0.25 h, 50 µM (CYP2C19) was > 50%, the activity at 0.25 h, 50 µM (CYP3A4 [15]) was 43.8% and the activity at 50 µM (CYP3A4 [16]) was 50%. The Drug metabolism [17] was “Metabolite_Notdetected” and the Drug metabolism [18] was “Metabolite_Detected”.

For COc1ccc2c(c1OC)CN(C)c1c-2ccc2cc3c(cc12)OCO3 [DIHYDROCHELERYTHRINE], the TDI (Cytochrome P450 3A4 [19]) was “Not Active”.

With COc1cc2c[n+](C)c3c4cc5c(cc4ccc3c2cc1OC)OCO5.[Cl-] [NITIDINE CHLORIDE] the Drug metabolism [1] was “Metabolite_Notdetected”, the TDI (Cytochrome P450 3A4 [20]) was “Active” and the Drug metabolism [17] was “Metabolite_Notdetected”. For the same compound, the Drug metabolism [18] was “Metabolite_Notdetected”.
